Results: US5599974A, “Aldehydic agents for allosteric modification of hemoglobin” (Center for Innovative Technology, priority 1994, dated 1997)

Legend:
human hemoglobin (HbA) = biological target: T1, human hemoglobin (HbA) (Homo sapiens, UniProt P69905); assay: Oxygen equilibrium studies of hemoglobin solutions (Hem-O-Scan oxygen dissociation curves); type: biochemical; details: hemoglobin solution; for P50 D (aver.) / ΔP50 (P50 D - P50 C): Hb 2.7 mM; for P50 D (aver.): compound 10 mM (approx. 4:1), 50 mM HEPES pH 7.4, incubated at 4° C. for two hours; for ΔP50 (P50 D - P50 C): compound 10 mM, 50 mM HEPES pH 7.4, positive = right shift
T1 construct: hemoglobin solution
Excerpt: In blood, hemoglobin is in equilibrium between two allosteric structures. In the "T" (for tense) state, hemoglobin is de-oxygenated. In the "R" (for relaxed) state, hemoglobin is oxygenated. An oxygen equilibrium curve can be scanned using well known equipment such as the Aminco™ Hem-o-scan to evaluate the affinity and degree of cooperativity (allosteric action) of hemoglobin. In the scan, the Y-axis plots the percent of hemoglobin oxygenation and the X-axis plots the partial pressure of oxygen in millimeters of mercury (mm Hg). If a horizontal line is drawn from the 50% oxygen saturation point to the scanned curve and a vertical line is drawn from the intersection point of the horizontal line with the curve to the partial pressure X-axis, a value commonly known as the P50 is determined. This is the pressure when the hemoglobin is 50% saturated with oxygen. By comparing the P50 value for treated hemoglobin to the P50 value for untreated normal adult human hemoglobin (HbA) under physiological conditions (i.e., 37° C., pH=7.4, and partial carbon dioxide pressure of 40 mm Hg), the degree of allosteric modification can be determined. When the P50 value for treated hemoglobin is lower than for HbA, a high oxygen affinity hemoglobin is indicated and the curve is said to be "left-shifted". Conversely, when the P50 value for treated hemoglobin is higher than for HbA, a low oxygen affinity hemoglobin is indicated and the curve is said to be "right-shifted".
In the oxygen equilibrium studies, the HbA was further purified by dialysis against pH 8.6. Tris buffer (50 mM, containing 40 mg EDTA/L) to remove any residual A2 hemoglobin. The pure HbA fraction was concentrated by using a Schleicher and Schuell colloidion bag apparatus, available from Schleicher and Schuell, Inc., with HEPES buffer (50 mM, pH 7.4) as the exchange buffer. The Hb concentration was determined by using the cyanmet method. The Hb concentration at this point was usually found to be around 35 g% (approximately 5.4 mM). Less than 5% methemoglobin was noted even after several days at 4° C. Oxygen dissociation curves were recorded on an AMINCO Hem-0-Scan oxygen dissociation analyzer available from Travenol Laboratories.
All compounds were dissolved in 50 mM HEPES buffer, pH 7.4, to give 20 mM of drug solution. The Hb (5.4 mM, in HEPES, pH 7.4) and the test compounds (20 mM) were mixed in 1:1 volume ratio (50μL of Hb+50μL of compound solution) to give final concentrations of 2.7 mM and 10mM, respectively (a molar ratio of test compound to hemoglobin of approximately 4:1). A control experiment was prepared by the addition of 50 μL of Hb to 50 μL of HEPES buffer. The mixtures were incubated at 4° C. for two hours before running the oxygen dissociation curves.

HbA = biological target: T2, HbA (Homo sapiens, UniProt P69905); assay: X-ray diffraction analysis of HbA/drug complexes (difference electron-density maps); type: binding; details: HbA tetramer/drug molar ratio 1:5 (TB17 1:10), Schiff base reduced, deoxygenated crystals
T2 construct: co-crystals with compounds
Experimental: Reaction of the drug compounds with HbA, crystallization and X-ray data collection of the HbA/drug complexes were performed according to the procedures of Wireko et al., Proc. Natl. Acad. Sci. USA, 1991, 88, 2209, which is herein incorporated by reference, with some slight modifications. Freshly prepared solutions of the synthesized compounds in potassium phosphate buffer were incubated at oxy HbA tetramer/drug molar ratios of 1:5 or 1:10 for at least 24 hours. Sodium cyanoborohydrie in phosphate buffer was added in 10- to 50-fold molar excess of HbA tetramer to reduce the Schiff's base adduct for at least 24 hours. The deoxygenated HbA/compound complexes were set up for crystallizations following the procedures described in Perutz et al., Crys. Growth, 1968, 2, 54, which is herein incorporated by reference, with some slight modifications. X-ray quality crystals for all complexes were obtained after three to seven days. Crystals of TB19 (discussed below) grown with HbA incubated and reduced under deoxygenated conditions was also used for data collection.
X-ray diffraction data for the MS2 complex (discussed below) was collected using a Rigaku AFC5R rotating anode diffractometer to a resolution of 4Å. All hk±1 reflections and their Friedel pairs were collected. One crystal, dimensions 0.3 to 1.2 mm was used for collection. Diffraction data for the rest of the complexes were collected with a Rigaku AFC5R rotating anode diffractometer equipped with an R-axis IIC image plate system, all to a resolution of 1.94A. Crystals of linear dimensions 0.2 to 0.5 mm were used. Data reduction, structure solution and calculation of Fourier difference electron-density maps were as described in Wireko et al., Proc. Natl. Acad. Sci. USA, 1991, 88, 2209.
Models of the compounds created with MMOD and minimized with MM2 force field were fitted to the electron-density by using FRODO on an EVANS and SUTHERLAND PS390 graphic station.
X-ray diffraction analyses were used to study several of the new drug complexes including MS1, MS2, TB8, TB10, TB17, TB19, TB32, TB36, TB62, and TB63. The difference electron-density maps of all complexes discussed are that of the HbA tetramer/drug molar ratio of 1:5, except TB17 which is 1:10. All drug molecules contain at least two functionalities, an aldehyde and a carboxylate, common to all of them. […] The only exception was MS2 where only one of the carboxylate oxygens was involved in the salt bridge interaction. The above binding site, which is common to all of the complexes, will be referred to as the α-cleft binding site. Some of the above drug compounds have additional functional groups which are also involved in additional interaction with other HbA residues, including hydrogen bonding, van der Waals interaction, and a second covalent bonding.
All complexes have two molecules of the drug compounds bound at the above-mentioned α-cleft site and are related by the two fold noncrystallographic axis. These sites are further noted as the α1-cleft site (Val-1α1 binding site), and the α2-cleft site (Val-1α2 binding site). In all complexes, the electron density at the α2-cleft site were slightly bigger and better defined than the electron density at the α1-cleft site. In addition to the binding at the α-cleft site, some of the drug compounds also bind to other secondary sites, including other sites in the α-cleft water cavity, the β-cleft water cavity located at Val-1β, and the Hb polymer contact site located near the residues His-116β and His-117β.

whole blood = assay: Whole-blood studies: effect on the oxygen affinity of whole blood; type: cell-based; details: for P50 D (aver.): heparinized whole blood mixed 1:1 with test compound solution, equilibrated 1 hour at 37° C., P50 C 25.0; for direction of shift of the oxygen equilibrium curve / ΔP50 D: whole blood; for ΔP50 D: 1 hour at 37° C., P50 D - P50 C

Compound	P50 D (aver.) (human hemoglobin (HbA)) [mm Hg]	ΔP50 (P50 D - P50 C) (human hemoglobin (HbA)) [mm Hg]	binding sites in HbA seen in the difference electron-density map (HbA)	direction of shift of the oxygen equilibrium curve (human hemoglobin (HbA))	P50 D (aver.) (whole blood) [mm Hg]	direction of shift of the oxygen equilibrium curve (whole blood)	ΔP50 D (whole blood) [mm Hg]
2-phenylethyloxy-5-formylbenzoic acid [TB32]	18.0	-2.0	–	–	–	–	–
O=Cc1ccc(O)c(C(=O)O)c1 [MS1, 5-formylsalicyclic acid]	21.0	1.0	four binding sites for MS1 in the central water cavity of HbA	–	–	–	–
O=Cc1ccc(C(=O)O)cc1 [MS2, 4-carboxybenzaldehyde]	21.0	2.0	binding exclusively at the two symmetry-related α-cleft sites	–	–	–	–
O=Cc1ccc(OCc2ccccc2COc2ccc(C=O)cc2C(=O)O)c(C(=O)O)c1 [TB5, α, α'-bis(2-carboxy-4-formylphenoxy)-o-xylene]	31.0	9.5	–	–	–	–	–
CC(=O)Oc1ccc(C=O)cc1C(=O)O [TB8, 5-formylaspirin]	21.0	-1.0	binding of TB8 at the two symmetry-related α-cleft sites of Val-1α	–	–	–	–
O=Cc1ccc(OCc2cccc(COc3ccc(C=O)cc3C(=O)O)c2)c(C(=O)O)c1 [TB10, α,α'bis(2-carboxy-4-formylphenoxy)-m-xylene]	26.0	4.5	–	–	–	–	–
O=Cc1ccc(OCc2ccc(COc3ccc(C=O)cc3C(=O)O)cc2)c(C(=O)O)c1 [TB11, α,α'bis(2-carboxy-4-formylphenoxy)-p-xylene]	24.0	2.5	–	–	–	–	–
O=Cc1ccc(OCc2ccccc2)c(C(=O)O)c1 [TB17, 2-benzyloxy-5-formylbenzoic acid]	–	–	three molecules of TB17 reacted to the Hb tetramer	right shift	14.5	left shift	-9.5
O=Cc1ccc(OCC=CCOc2ccc(C=O)cc2C(=O)O)c(C(=O)O)c1 [TB18, 1,4-bis(2-carboxy-4-formylphenoxy)-2-butene]	40.0	18.0	–	right shift	19.0	left shift	-6.0
O=Cc1ccc(OCc2ccc(C(=O)O)cc2)c(C(=O)O)c1 [TB34, α-(2-carboxy-4-formylphenoxy)-p-toluic acid]	14.0	-6.0	–	–	–	–	–
O=Cc1ccc(OCCCCOc2ccc(C(=O)O)cc2)c(C(=O)O)c1 [TB35]	25	4	–	–	–	–	–
O=Cc1ccc(OCCCOc2ccc(C=O)cc2C(=O)O)c(C(=O)O)c1 [TB36, 1,3-bis(2-carboxy-4-formylphenoxy)-propane]	44.0	22.0	binding exclusively at the two symmetry-related α-cleft sites	–	–	–	–
O=Cc1ccc(OC(=O)/C=C/C(=O)Oc2ccc(C=O)cc2C(=O)O)c(C(=O)O)c1 [TB40, bis(2-carboxy-4-formylphenyl)-fumerate]	14.0	-6.0	–	–	–	–	–
O=Cc1ccc(OCCCCCCOc2ccc(C=O)cc2C(=O)O)c(C(=O)O)c1 [TB42, 1,6-bis(2-carboxy-4-formylphenoxy)-hexane]	39.0	17.0	–	–	–	–	–
O=Cc1ccc(OC(=O)c2ccc(C(=O)Oc3ccc(C=O)cc3C(=O)O)cc2)c(C(=O)O)c1 [TB56, bis(2-carboxy-4-formylphenyl)-terephthalate]	16.0	-4.0	–	–	–	–	–
O=Cc1ccc(OCCCCCOc2ccc(C=O)cc2C(=O)O)c(C(=O)O)c1 [TB57, 1,5-bis(2-carboxy-4-formylphenoxy)-pentane]	33.0	11.0	–	–	–	–	–
O=Cc1ccc(OCCCCCCCCOc2ccc(C=O)cc2C(=O)O)c(C(=O)O)c1 [TB58, 1,8-bis(2-carboxy-4-formylphenoxy)-octane]	37.0	15.0	–	–	–	–	–
O=Cc1ccc(OCOc2ccc(C=O)cc2C(=O)O)c(C(=O)O)c1 [TB62/45, bis(2-carboxy-4-formylphenoxy)-methane]	51.0	29.0	binding exclusively at the two symmetry-related α-cleft sites	–	–	–	–
O=Cc1ccc(OCCOc2ccc(C=O)cc2C(=O)O)c(C(=O)O)c1 [TB63/41, 1,2-Bis(2-Carboxy-4-formylphenoxy)-ethane]	46.0	24.0	binding exclusively at the two symmetry-related α-cleft sites	–	–	–	–
CC(CCCOc1ccc(C=O)cc1C(=O)O)Oc1ccc(C=O)cc1C(=O)O (centres unmarked) [TB72, 1,4-bis(2-carboxy-4-formylphenoxy)-pentane]	30.0	8.0	–	–	–	–	–
O=Cc1ccc(OCCCCCCCCCCOc2ccc(C=O)cc2C(=O)O)c(C(=O)O)c1 [TB73, 1,10-bis(2-carboxy-4-formylphenoxy)-decane]	33.0	11.0	–	–	–	–	–
O=Cc1ccc(OC(=O)C(=O)Oc2ccc(C=O)cc2C(=O)O)c(C(=O)O)c1 [TB77, bis(2-carboxy-4-formylphenyl)-oxalate]	19.5	-1.5	–	–	–	–	–
O=Cc1ccc(OC(=O)CCC(=O)Oc2ccc(C=O)cc2C(=O)O)c(C(=O)O)c1 [TB80, bis(2-carboxy-4-formylphenyl)-succinate]	14.5	-5.5	–	–	–	–	–
